This is an account of results in US20220273752A1, “MODULATION OF DENDRITIC CELL FUNCTION BY THE PHOSPHOLIPID MESSENGER LPA” (Cornell University, priority 2019, published 2022).

The test system of assay [1] is bone marrow-derived dendritic cells (BMDCs). The experiment in a line: Antigen presentation: OVA-pulsed BMDCs co-cultured with CFSE-labeled OT-II T cells. The format is cell-based, murine. The settings on record: 100 μM LPA, 6 hours, then OVA 3 hours, OT-II T cell proliferation 3 days later. The procedure:
FIG. 3A-3C illustrate that LPA inhibits the antigen-presenting capacity of dendritic cells. Bone marrow-derived dendritic cells (BMDCs) were exposed to 100 μM LPA for 6 hours and then pulsed with full-length ovalbumin (OVA) for 3 hours.
Cells were washed and co-cultured with OVA-specific OT-II T cells labeled with carboxyfluorescein succinimidyl ester (CFSE, which stains intracellular molecules, typically lysine residues). T cell proliferation was assessed by FACS 3 days later.
FIG. 3C graphically illustrates the division index of proliferating cells as determined by FlowJo analysis. ****P<0.0001.

Assay [2] relates to TBK1 and IRF3 proteins in BMDCs. Description: Western blot of TBK1 and IRF3 phosphorylation in BMDCs. The settings on record: LPS- or Poly(I:C)-treated BMDCs; compared with untreated. The format is cell-based, murine. On the procedure:
The activation status of signaling pathways implicated in the optimal induction of type-I IFNs was then evaluated.
A general note: In western blotting, separated proteins are transferred to a membrane and probed.

The test system of the next assay is bone marrow-derived DCs. The experiment in a line: qPCR and Multiplex cytokine assays in BMDCs treated with LPA and Tunicamycin. The format is cell-based, mouse. On the procedure: FIG. 4A-4L graphically illustrate that induction of a set of highly tumorigenic and immunomodulatory genes is mainly PERK-dependent in LPA-exposed dendritic cells undergoing endoplasmic reticulum (ER) stress. Bone marrow-derived dendritic cells (BMDCs) from the indicated genotypes were left untreated or were incubated with LPA (100 μM), Tunicamycin (TM, 1 μg/ml) or with the combination of both for 6 hours. Gene expression was determined by qPCR. In all cases data, was normalized to endogenous Actb levels in each sample. These findings have further been confirmed using primary splenic dendritic cells and with an independent ER stressor, Thapsigargin (extensive data not shown). ***P<0.0005, ***P<0.0001. The serine/threonine-protein kinase/endoribonuclease inositol-requiring enzyme 1 α (IRE1α) in humans is encoded by the ERNI gene, and expression of the IRE1α protein is activated during endoplasmic reticulum (ER) stress. TM is a pharmacological ER stressor that causes protein glycosylation defects. FIG. 4A graphically illustrates expression of IL-1, in bone marrow-derived DCs from Ern1^f/f or Ern1^f/f Vav1-Cre (Ern1 knockout) mice with or without co-treatment by ER stressor Tunicamycin (TM) and/or physiological concentrations of LPA. […]

As for lysophosphatidic acid [LPA], the “antigen-presenting capacity of dendritic cells” value in assay [1] is “inhibits”. In assay [2], the “phosphorylation of TBK1 and IRF3 proteins” value is “inhibited phosphorylation”. The “production of IL-1b, IL-6, VEGF-a, LIF, M-CSF, GRO-a (IL-8) and MIP1-a” value in the assay on bone marrow-derived DCs (BMDCs co-treated with Tunicamycin (TM) and LPA (100 µM), Multiplex cytokine assays) is “significant PERK-dependent overproduction”. In the assay on bone marrow-derived DCs (ER-stressed DCs simultaneously exposed to LPA, qPCR), the “expression of genes encoding IL-6, IL-1b, Arginase, Cox-2 and Vegf-A” value is reported as “potent upregulation”.
